Like-named read-outs stand apart in the source and are kept apart here.
Columns and labels:
[1] = system: Pyricularia oryzae; assay type: cell-based; conditions: PO, 48 hours
[2] = system: Phytophthora infestans; assay: whole plant or invertebrate; assay type: in vivo; conditions: Phytophthora infestans, in Solanum lycopersicum, foliar, read-out: Percent Disease Control, foliar, tomato late blight, 150 ppm, protective
[3] = system: Pyricularia oryzae; assay: whole plant or invertebrate; assay type: in vivo; conditions: Pyricularia oryzae, foliar, 24 h, read-out: Percent Disease Control, curative, rice blast, 150 ppm, 24 hours after inoculation

Compound | Spore Germination Rating ([1]; 1.0 ppm) | Spore Germination Rating ([1]; 2.5 ppm) | Spore Germination Rating ([1]; 10 ppm) | Spore Germination Rating ([1]; 40 ppm) | pest or weed control at 150 ppm [2] [%] | pest or weed control at 150 ppm [3] [%]
Cc1ccc(Oc2nsnc(Cl)c2=O)cc1 [Compound 3, 3-chloro-5-(4-methylphenoxy)-4H--1,2,6-thiadiazin-4-one] | 0 (0-10) | 4 (80-100) | 0 (0-10) | 0 (0-10) | 50 | 0
CC(=O)Nc1ccc(Oc2nsnc(Cl)c2=O)cc1 [Compound 8, 5-(4-acetylaminophenoxy)-3-chloro-4H--1,2,6-thiadiazin-4-one] | 4 (80-100) | 3 (60-80) | 0 (0-10) | 0 (0-10) | 90 | 0
Cc1ccc(Oc2nsnc(Cl)c2=O)c(Br)c1 [Compound 57, 3-[(2-bromo-4-methyl)-phenoxy]-5-chloro-4H--1,2,6-thiadiazin-4-one] | 0 (0-10) | 2 (40-60) | 0 (0-10) | 0 (0-10) | 0 | 0
O=c1c(Cl)nsnc1Oc1c(Cl)cccc1Cl [Compound 18, 3-chloro-5-(2,6-dichlorophenoxy)-4H--1,2,6-thiadiazin-4-one] | 4 (80-100) | 2 (40-60) | 0 (0-10) | 0 (0-10) | 50 | 0
O=c1c(Cl)nsnc1Oc1c(Cl)c(Cl)c(Cl)c(Cl)c1Cl [Compound 31, 3-chloro-5-(pentachlorophenoxy)-4H--1,2,6-thiadiazine-4-one] | 0 (0-10) | 0 (0-10) | 0 (0-10) | 0 (0-10) | 0 | 0
O=c1c(Cl)nsnc1Oc1ccc(Cl)cc1 [Compound 12, 3-chloro-5-(4-chlorophenoxy)-4H--1,2,6-thiadiazin-4-one] | 0 (0-10) | 0 (0-10) | 0 (0-10) | 0 (0-10) | 100 | 75
O=c1c(Cl)nsnc1Oc1cccc(Cl)c1Cl [Compound 19, 3-chloro-5-(2,3-dichlorophenoxy)-4H--1,2,6-thiadiazin-4-one] | 3 (60-80) | 0 (0-10) | 0 (0-10) | 0 (0-10) | 0 | 0
CSc1ccc(Oc2nsnc(Cl)c2=O)cc1 [Compound 39, 3-chloro-5-[(4-methylthio)phenoxy]-4H-1,2,6,-thiadiazin-4-one] | 2 (40-60) | 1 (10-40) | 1 (10-40) | 0 (0-10) | 0 | 0
O=c1c(Cl)nsnc1Oc1c(Cl)cc(Cl)cc1Cl [Compound 30, 3-chloro-5-(2,4,6-trichlorophenoxy)-4H--1,2,6-thiadiazin-4-one] | 3 (60-80) | 0 (0-10) | 0 (0-10) | 0 (0-10) | 0 | 0
CC(=O)Nc1ccccc1Oc1nsnc(Cl)c1=O [Compound 43, 3-[(2-acetylamino)-phenoxy]-5-chloro-4H--1,2,6-thiadiazin-4-one] | 4 (80-100) | 4 (80-100) | 4 (80-100) | 1 (10-40) | 0 | 0
CNC(=O)Nc1ccc(Oc2nsnc(Cl)c2=O)cc1 [Compound 28, 3-chloro-5-[4-(3-methylureido)-phenoxy]-4H--1,2,6-thiadiazin-4-one] | 4 (80-100) | 4 (80-100) | 4 (80-100) | 1 (10-40) | 90 | 0
CC(=O)c1ccccc1Oc1nsnc(Cl)c1=O [Compound 49, 3-(2-acetylphenoxy)-5-chloro-4H--1,2,6-thiadiazin-4-one] | 2 (40-60) | 1 (10-40) | 0 (0-10) | 0 (0-10) | 90 | 0
COc1ccc(Cl)c(Oc2nsnc(Cl)c2=O)c1 [Compound 51, 3-chloro-5-[(2-chloro-5-methoxy)phenoxy]-4H--1,2,6-thiadiazin-4-one] | 3 (60-80) | 0 (0-10) | 0 (0-10) | 0 (0-10) | 90 | 0
O=C(O)Cc1ccccc1Oc1nsnc(Cl)c1=O [Compound 45, 3-(2-carboxymethylphenoxy)-5-chloro-4H--1,2,6-thiadiazin-4-one] | 4 (80-100) | 4 (80-100) | 4 (80-100) | 1 (10-40) | 0 | 0
